Results from ChEMBL document CHEMBL1147622, “Design and synthesis of indolo[2,3-a]quinolizin-7-one inhibitors of the ZipA-FtsZ interaction” (2004).

Columns and labels:
[1] = Antibacterial activity against Gram-positive, Gram-negative bacteria and Escherichia coli; type: functional
Escherichia coli = assay: Inhibition of ZipA FtsZ binding at 1 mM using an optical biosensor system

SMILES	MIC [1]	inhibition (Escherichia coli)
Cc1ccc(CNC(=O)CCCn2c3c(c4ccccc42)C(=O)CN2CCCCC32)o1 (stereo not given)	≥ 200 µM	23%
O=C1CN2CCCCC2c2[nH]c3ccccc3c21 (stereo not given)	≥ 200 µM	39%
N#CCCNC(=O)CCCn1c2c(c3ccccc31)C(=O)CN1CCCCC21 (stereo not given)	≥ 200 µM	39%
O=C(Cn1c2c(c3ccccc31)C(=O)CN1CCCCC21)NC1CCCC1 (stereo not given)	≥ 200 µM	31%
O=C(CCCn1c2c(c3ccccc31)C(=O)CN1CCCCC21)NC1CCCC1 (stereo not given)	≥ 200 µM	24%
O=C(CCCn1c2c(c3ccccc31)C(=O)CN1CCCCC21)NCC(F)(F)F (stereo not given)	≥ 200 µM	21%
O=C1CN2CCCCC2c2c1c1ccccc1n2CCCN1CC(Br)C1=O (stereo not given)	≥ 200 µM	38%
N#CCCNC(=O)CCn1c2c(c3ccccc31)C(=O)CN1CCCCC21 (stereo not given)	≥ 200 µM	22%
Cc1ccc(CNC(=O)CCn2c3c(c4ccccc42)C(=O)CN2CCCCC32)o1 (stereo not given)	≥ 200 µM	32%

Now from value to compound:

MIC [1]	inhibition (Escherichia coli)	SMILES
≥ 200 µM	25%	O=C1CN2CCCCC2c2c1c1ccccc1n2CCCNS(=O)(=O)c1cccs1 (stereo not given)
≥ 200 µM	38%	O=C(NCCCn1c2c(c3ccccc31)C(=O)CN1CCCCC21)c1ccco1 (stereo not given)
≥ 200 µM	25%	CCCCS(=O)(=O)NCCCn1c2c(c3ccccc31)C(=O)CN1CCCCC21 (stereo not given)
≥ 200 µM	41%	CS(=O)(=O)NCCCn1c2c(c3ccccc31)C(=O)CN1CCCCC21 (stereo not given)
≥ 200 µM	47%	NCCCn1c2c(c3ccccc31)C(=O)CN1CCCCC21 (stereo not given)
≥ 200 µM	8%	O=C(NCCCn1c2c(c3ccccc31)C(=O)CN1CCCCC21)c1ccc(Cl)c(Cl)c1 (stereo not given)
≥ 200 µM	46%	CC(C)S(=O)(=O)NCCCn1c2c(c3ccccc31)C(=O)CN1CCCCC21 (stereo not given)
≥ 200 µM	12%	O=C1CN2CCCCC2c2c1c1ccccc1n2CCCNS(=O)(=O)c1cc(Cl)sc1Cl (stereo not given)
≥ 200 µM	30%	Cc1nnsc1S(=O)(=O)NCCCn1c2c(c3ccccc31)C(=O)CN1CCCCC21 (stereo not given)
≥ 200 µM	33%	O=C(Cc1ccc(F)cc1)NCCCn1c2c(c3ccccc31)C(=O)CN1CCCCC21 (stereo not given)
≥ 200 µM	11%	O=C1CN2CCCCC2c2c1c1ccccc1n2CCCNS(=O)(=O)c1ccc(Cl)s1 (stereo not given)
